Measurements reported in patent publication US20140187430A1, “Compositions and Methods for Identifying Autism Spectrum Disorders” (George Washington University, priority 2010, published 2014).
Entries after “also recorded” stand apart in the source; their conditions may differ.

Tests used:
Format in all cases: cell-based, human
BCL-2 = test: qRT-PCR of BCL-2 transcript in LCL after 5-Aza-2-deoxycytidine treatment; conditions: 5 μM, 48 hours
Procedure: (§1) LCL, which were obtained from the Autism Genetic Research Exchange (AGRE; Los Angeles, Calif.) were derived from lymphocytes of autistic and normal siblings and cultured as previously described (Hu et al. (2006) BMC Genomics 7, 118). Demethylating treatments were carried out by incubating cells in culture with 5 μM 5-Aza-2-deoxycytidine (Fluka, St. Louis, Mo.) or vehicle control, DMSO (FisherBioTech, Pittsburgh, Pa.) for 48 hours before harvesting cells.
(§2) Genomic DNA was isolated using the Qiagen DNeasy™ Blood and Tissue Kit (Valencia, Calif.) and used for bisulfite modification for methylation analyses. Total RNA was isolated using TRIzol reagent (Invitrogen, Carlsbad, Calif.) according to the manufacturer's protocol and used for gene expression analyses by quantitative RT-PCR. […]
(§3) Two candidate genes, BCL-2 and RORA, were chosen for quantitative real-time (RT)-PCR analysis to examine the correlation between expression of mRNA transcript and methylation status as predicted by microarray analysis, as well as to examine the effect of 5-Aza-2-deoxycytidine treatment on transcript levels. […] The qPCR reactions (in triplicate) were analyzed on an ABI Prism 7300 Sequence Detection System and transcript levels of BCL-2 and RORA were quantified and normalized to standard curves obtained using universal 18S rRNA primers.

[1] = test system: upstream CpG island region of RORA; test: Methylation-specific PCR (MSP) of upstream CpG island region of RORA in LCL; conditions: LCL of autistic individuals; 5 μM, 48 hours
Procedure: as §1
Two ug of genomic DNA isolated from LCL were treated with sodium bisulfite using the Active Motif MethylDetector kit (Carlsbad, Calif.) according to the manufacturer's specifications. Successful bisulfite treatment and conversion was verified using positive control PCR primers for the p16 (CDKN2A) locus provided in the MethylDetector kit.
For methylation-specific PCR (MSP), 2 sets of primers spanning a region approximately 300 bp upstream of the first exon of RORA (UHNhscpg0014103; chr15:59309160-59309428) were designed according to assumed differences in methylation status (i.e., fully methylated or fully unmethylated). These primers were previously successful in identifying methylation-specific silencing of RORA in several gastric cancer cell lines (Yamashita et al. (2006) Cancer Science 97, 64-71). Bisulfite-modified genomic DNA was used as a template for PCR and PCR products were resolved by agarose gel electrophoresis.

RORA = test: qRT-PCR of RORA transcript in LCL after 5-Aza-2-deoxycytidine treatment; conditions: 5 μM, 48 hours
Procedure: as §1, §2, §3

[2] = LCL from the "mild" undiagnosed co-twins
[3] = LCL of autistic individuals, vs DMSO vehicle

Nc1ncn([C@H]2C[C@H](O)[C@@H](CO)O2)c(=O)n1 [5-Aza-2-deoxycytidine]
change in BCL-2 expression level with treatment (BCL-2; [2]): no statistically significant increases | fold-change in BCL-2 transcript expression following treatment (BCL-2; [3]): 1.5 fold | methylated PCR product of RORA promoter region (MSP) following treatment [1]: absence of methylated product; also recorded: absence of methylation | change in RORA expression level with treatment (RORA; [2]): no statistically significant increases | fold-change in RORA transcript expression following treatment (RORA; [3]): 1.8 fold
